The NIST ThermoML archive (doi:10.1016/j.fluid.2017.06.019)

Settings: 368.46 K, Liquid, Coaxial cylinder method

CCC [propane]
Settings | thermal conductivity [W/m/K]
4166 kPa | 0.1166
4167 kPa | 0.1142
4168 kPa | 0.112
4169 kPa | 0.1098
4170 kPa | 0.1079
4171 kPa | 0.1059
4172 kPa | 0.1041
4173 kPa | 0.1023
4174 kPa | 0.1007
4175 kPa | 0.09915
4176 kPa | 0.09767
4177 kPa | 0.09622
4178 kPa | 0.09487
4179 kPa | 0.09359
4180 kPa | 0.0923
4181 kPa | 0.09113
4182 kPa | 0.09007
4183 kPa | 0.08899
4184 kPa | 0.08793
4185 kPa | 0.08689
4186 kPa | 0.08599
4187 kPa | 0.08507
4188 kPa | 0.08424
4189 kPa | 0.08337
4190 kPa | 0.08257
4191 kPa | 0.08179
4192 kPa | 0.08112
4193 kPa | 0.08042
4194 kPa | 0.07971
4195 kPa | 0.0791
4196 kPa | 0.0785
4197 kPa | 0.07791
4198 kPa | 0.07733
4199 kPa | 0.07676
4200 kPa | 0.07619
4201 kPa | 0.07577
4202 kPa | 0.07536
4203 kPa | 0.07481
4204 kPa | 0.07441
4205 kPa | 0.07401
4206 kPa | 0.07348
4207 kPa | 0.07318
4208 kPa | 0.07282
4209 kPa | 0.07244
4210 kPa | 0.07206
4211 kPa | 0.07181
4212 kPa | 0.07151
4213 kPa | 0.07116
4214 kPa | 0.07087
4215 kPa | 0.07063
4216 kPa | 0.07039
4217 kPa | 0.0701
4218 kPa | 0.06986
4219 kPa | 0.06962
4220 kPa | 0.06939
4221 kPa | 0.0692
4222 kPa | 0.06897
4223 kPa | 0.06874
4224 kPa | 0.0686
4225 kPa | 0.0684
4226 kPa | 0.06824
4227 kPa | 0.06804
4228 kPa | 0.0679
4229 kPa | 0.06777
4230 kPa | 0.06761
4231 kPa | 0.06749
4232 kPa | 0.06733
4233 kPa | 0.06722
4234 kPa | 0.06709
4235 kPa | 0.06698
4236 kPa | 0.06684
4237 kPa | 0.06677
4238 kPa | 0.06652
4239 kPa | 0.06652
4240 kPa | 0.06647
4241 kPa | 0.06643
4242 kPa | 0.06641
4244 kPa | 0.06637
4246 kPa | 0.0663
4248 kPa | 0.06624
4250 kPa | 0.06619
4252 kPa | 0.06614
4254 kPa | 0.06611
4256 kPa | 0.06607
4258 kPa | 0.066
4260 kPa | 0.06598
4262 kPa | 0.06591
4264 kPa | 0.06587
4266 kPa | 0.06583
4268 kPa | 0.06578
4270 kPa | 0.06574
4272 kPa | 0.06572
4274 kPa | 0.06568
4276 kPa | 0.06564
4278 kPa | 0.06564
4280 kPa | 0.06559
4282 kPa | 0.06555
4284 kPa | 0.0655
4286 kPa | 0.0655
4288 kPa | 0.06543
4290 kPa | 0.06539
4292 kPa | 0.06535
4294 kPa | 0.06533
4296 kPa | 0.06529
4298 kPa | 0.06529
4300 kPa | 0.06527
4302 kPa | 0.06525
4304 kPa | 0.06521
4306 kPa | 0.06516
4308 kPa | 0.06514
4310 kPa | 0.06514
